In patent publication US12552783B2, “Modulators of proteolysis and associated methods of use” (Arvinas Operations, Inc., priority 2018, dated 2026):

Molecular target: KRas (Homo sapiens, UniProt P01116, G12C)
Test: KRas degradation in SW1573 cells by Western blot, normalized to GAPDH (data of Table 14)
Format: cell-based
Settings: SW1573 cells
Procedure: Cell Lines, Antibodies, and Reagents. NCI-H2030 (CRL-5914) and SW1573 (CRL-2170) cells were purchased from ATCC. Both cell lines are homozygous for the G12C mutation in KRas. NCI-H2030 cells were cultured in RPMI-1640 medium containing 1% penicillin-streptomycin and 10% fetal bovine serum (FBS). SW1573 cells were cultured in DMEM containing 1% penicillin-streptomycin and 10% FBS. The KRas detection antibody (Cat. No. LS-C175665) was purchased from LifeSpan Biosciences and was used at a dilution of 1:2000. GAPDH was detected using an antibody purchased from Cell Signaling Technology (Cat. No. 5174) and was diluted 1:3000. Secondary anti-mouse and anti-rabbit detection antibodies were purchased from Cell Signaling Technology (Cat. Nos. 7076 and 7074, respectively).
Compound Treatment and Western Blotting of the Data of Table 14. Either NCI-H2030 or SW1573 cells were plated in 12-well plates and allowed to adhere overnight at 37° C. in an incubator containing 5% CO2. The following day, the medium was replaced with the appropriate medium lacking FBS to induce starvation. Cells were returned to the incubator for an additional 24 hours following media exchange. […] Cells were treated with VHL-based compounds for 24 hours and all other compounds for 72 hours. Following treatment, cells were lysed in RIPA buffer (Thermo Fisher Cat. No. 89900) containing phosphatase (Thermo Fisher Cat. No. 1861277) and protease (Thermo Fisher Cat. No. 78429) inhibitor cocktails. Lysates were cleared at 13,000 rpm for 15 minutes and supernatants were assayed for total protein concentration using the Pierce BCA assay system (Thermo Fisher Cat. No. 23225). For each sample, 10 μg total protein was resolved on a 12% Bis-Tris gel and then transferred to a nitrocellulose membrane. After blocking in 3% BSA in TBST (Tris-buffered Saline with 0.1% Tween-20) for 1 hour at room temperature, membranes were probed with the primary antibody (LS Bio Cat. No. LS-C175665) overnight at 4° C. After incubation with the secondary antibody, the following day membranes were visualized using the SuperSignal™ West Femto substrate (Thermo Fisher Cat. No. 34095). The KRas signal in each lane was normalized to GAPDH and percent degradation was either estimated as less than 25% by visual inspection (C in Table 13) or quantitated relative to the DMSO control lane using BIO-RAD Image Lab 5.2.1, and all data was plotted using GraphPad PRISM 6.07.
DC50 is the half-maximal degradation concentration—i.e., the concentration at which 50% degradation is observed. DMax is the maximum degradation efficacy is achieved—i.e., the maximal degradation observed) degradation data.

Structure (SMILES)	Percent Degradation at Indicated Concentration (μM) (0.3 μM)	Percent Degradation at Indicated Concentration (μM) (1 μM)	Percent Degradation at Indicated Concentration (μM) (3 μM)	Percent Degradation at Indicated Concentration (μM) (0.1 μM)	DC50	Dmax	Percent Degradation at Indicated Concentration (μM) (0.01 μM)	Percent Degradation at Indicated Concentration (μM) (0.03 μM)
C=CC(=O)N1CCN(c2nc(O[C@H](C)CN(C)CCOCCOCCOCCOCC(=O)N[C@H](C(=O)N3C[C@H](O)C[C@H]3C(=O)N[C@@H](C)c3ccc(-c4scnc4C)cc3)C(C)(C)C)nc3c(F)c(-c4cc(O)cc5ccccc45)c(Cl)cc23)CC1 [compound 397, (2S,4R)-1-((2S,20R)-20-((4-(4-acryloylpiperazin-1-yl)-6-chloro-8-fluoro-7-(3-hydroxynaphthalen-1-yl)quinazolin-2-yl)oxy)-2-(tert-butyl)-18-methyl-4-oxo-6,9,12,15-tetraoxa-3,18-diazahenicosanoyl)-4-hydroxy-N-((S)-1-(4-(4-methylthiazol-5-yl)phenyl)ethyl)pyrrolidine-2-carboxamide]	C (Percent Degradation: C ≤ 35)	C (Percent Degradation: C ≤ 35)		C (Percent Degradation: C ≤ 35)	0.1 to 1 µM	≤ 35%	C (Percent Degradation: C ≤ 35)	C (Percent Degradation: C ≤ 35)
C=CC(=O)N1CCN(c2nc(O[C@H](C)CN3CCC(CN4CCN(CC(=O)N[C@H](C(=O)N5C[C@H](O)C[C@H]5C(=O)N[C@@H](C)c5ccc(-c6scnc6C)cc5)C(C)(C)C)CC4)CC3)nc3c(F)c(-c4cc(O)cc5ccccc45)c(Cl)cc23)CC1 [compound 403, (2S,4R)-1-((2S)-2-(2-(4-((1-((2R)-2-((4-(4-acryloylpiperazin-1-yl)-6-chloro-8-fluoro-7-(3-hydroxynaphthalen-1-yl)quinazolin-2-yl)oxy)propyl)piperidin-4-yl)methyl)piperazin-1-yl)acetamido)-3,3-dimethylbutanoyl)-4-hydroxy-N-((S)-1-(4-(4-methylthiazol-5-yl)phenyl)ethyl)pyrrolidine-2-carboxamide]	B (35 < B < 70)	C (Percent Degradation: C ≤ 35)		B (35 < B < 70)	< 0.1 µM	35 to 70%	C (Percent Degradation: C ≤ 35)	B (35 < B < 70)
C=CC(=O)N1CCN(c2nc(O[C@H](C)CN3CCN(CC4CCN(CC(=O)N[C@H](C(=O)N5C[C@H](O)C[C@H]5C(=O)N[C@@H](C)c5ccc(-c6scnc6C)cc5)C(C)(C)C)CC4)CC3)nc3c(F)c(-c4cc(O)cc5ccccc45)c(Cl)cc23)CC1 [compound 404, (2S,4R)-1-((2S)-2-(2-(4-((4-((2R)-2-((4-(4-acryloylpiperazin-1-yl)-6-chloro-8-fluoro-7-(3-hydroxynaphthalen-1-yl)quinazolin-2-yl)oxy)propyl)piperazin-1-yl)methyl)piperidin-1-yl)acetamido)-3,3-dimethylbutanoyl)-4-hydroxy-N-((S)-1-(4-(4-methylthiazol-5-yl)phenyl)ethyl)pyrrolidine-2-carboxamide]	A (A > 70)	A (A > 70)		B (35 < B < 70)				
C=CC(=O)N1CCN(c2nc(O[C@H](C)CN3CCC(OCCOCCOCCOCCOCC(=O)N[C@H](C(=O)N4C[C@H](O)C[C@H]4C(=O)N[C@@H](C)c4ccc(-c5scnc5C)cc4)C(C)(C)C)CC3)nc3c2CCN(c2cc(O)cc4ccccc24)C3)CC1 [compound 409]	C (Percent Degradation: C ≤ 35)	C (Percent Degradation: C ≤ 35)		C (Percent Degradation: C ≤ 35)				
C=CC(=O)N1CCN(c2nc(O[C@H](C)CN3CCC(OCCNc4cccc5c4C(=O)N(C4CCC(=O)NC4=O)C5=O)CC3)nc3c2CCN(c2cc(O)cc4ccccc24)C3)CC1 (stereo partly drawn) [compound 411, 4-((2-((1-((R)-2-((4-(4-acryloylpiperazin-1-yl)-7-(3-hydroxynaphthalen-1-yl)-5,6,7,8-tetrahydropyrido[3,4-d]pyrimidin-2-yl)oxy)propyl)piperidin-4-yl)oxy)ethyl)amino)-2-(2,6-dioxopiperidin-3-yl)isoindoline-1,3-dione]	C (Percent Degradation: C ≤ 35)	C (Percent Degradation: C ≤ 35)		C (Percent Degradation: C ≤ 35)				

Continued, in another order:

Percent Degradation at Indicated Concentration (μM) (0.3 μM)	Percent Degradation at Indicated Concentration (μM) (1 μM)	Percent Degradation at Indicated Concentration (μM) (3 μM)	Percent Degradation at Indicated Concentration (μM) (0.1 μM)	Structure (SMILES)	DC50	Dmax	Percent Degradation at Indicated Concentration (μM) (0.01 μM)	Percent Degradation at Indicated Concentration (μM) (0.03 μM)
C (Percent Degradation: C ≤ 35)	C (Percent Degradation: C ≤ 35)	C (Percent Degradation: C ≤ 35)		Cc1ncsc1-c1ccc([C@H](C)NC(=O)[C@@H]2C[C@@H](O)CN2C(=O)[C@@H](NC(=O)COCCOCCOCCOCCOC2CCN(C[C@@H](C)Oc3nc(N4CCN(C(=O)C(O)O)CC4)c4cc(Cl)c(-c5cc(O)cc6ccccc56)c(F)c4n3)CC2)C(C)(C)C)cc1 [compound 247, (2S,4R)-1-((2S)-2-(tert-butyl)-17-((1-((2R)-2-((6-chloro-4-(4-(2,2-dihydroxyacetyl)piperazin-1-yl)-8-fluoro-7-(3-hydroxynaphthalen-1-yl)quinazolin-2-yl)oxy)propyl)piperidin-4-yl)oxy)-4-oxo-6,9,12,15-tetraoxa-3-azaheptadecanoyl)-4-hydroxy-N-((S)-1-(4-(4-methylthiazol-5-yl)phenyl)ethyl)pyrrolidine-2-carboxamide]				
C (Percent Degradation: C ≤ 35)	C (Percent Degradation: C ≤ 35)	C (Percent Degradation: C ≤ 35)		Cc1ncsc1-c1ccc([C@H](C)NC(=O)[C@@H]2C[C@@H](O)CN2C(=O)[C@@H](NC(=O)COCCOCCOCCOCCOCCOC2CCN(C[C@@H](C)Oc3nc(N4CCN(C(=O)C(O)O)CC4)c4cc(Cl)c(-c5cc(O)cc6ccccc56)c(F)c4n3)CC2)C(C)(C)C)cc1 [compound 248, (2S,4R)-1-((2S)-2-(tert-butyl)-20-((1-((2R)-2-((6-chloro-4-(4-(2,2-dihydroxyacetyl)piperazin-1-yl)-8-fluoro-7-(3-hydroxynaphthalen-1-yl)quinazolin-2-yl)oxy)propyl)piperidin-4-yl)oxy)-4-oxo-6,9,12,15,18-pentaoxa-3-azaicosanoyl)-4-hydroxy-N-((S)-1-(4-(4-methylthiazol-5-yl)phenyl)ethyl)pyrrolidine-2-carboxamide]				
C (Percent Degradation: C ≤ 35)	C (Percent Degradation: C ≤ 35)		C (Percent Degradation: C ≤ 35)	C=CC(=O)N1CCN(c2nc(O[C@H](C)CN3CCC(OCCOCCOCC(=O)N[C@H](C(=O)N4C[C@@H](O)C[C@H]4C(=O)N[C@@H](C)c4ccc(-c5scnc5C)cc4)C(C)(C)C)CC3)nc3c(F)c(-c4cc(O)cc5ccccc45)c(Cl)cc23)CC1 [compound 405, (2S,4S)-1-((2S)-2-(2-(2-(2-((1-((2R)-2-((4-(4-acryloylpiperazin-1-yl)-6-chloro-8-fluoro-7-(3-hydroxynaphthalen-1-yl)quinazolin-2-yl)oxy)propyl)piperidin-4-yl)oxy)ethoxy)ethoxy)acetamido)-3,3-dimethylbutanoyl)-4-hydroxy-N-((S)-1-(4-(4-methylthiazol-5-yl)phenyl)ethyl)pyrrolidine-2-carboxamide]				
